Reference: US12240844B2 (Voronoi, Inc., priority 2019, dated 2025)

What was measured:
[1] = biological target: T1, human GST-DYRK1A (full length) (Homo sapiens, UniProt Q13627); test: GST-DYRK1A enzyme inhibition, ADP-Glo kinase assay; assay type: biochemical; details: read-out: DYRK1 IC50
T1 construct: purified human GST-DYRK1A (full length, Thermo scientifics) enzyme; GST; purchased Thermo scientifics
Outline: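 ADP-Glo luminescence quantified kinase activity after a 1 h, 25° C reaction of 10 ng full-length GST-tagged human DYRK1A, substrate and 10 uM ATP in Tris-HCl buffer pH 7.4 with MgCl2, BSA and DTT. Triplicate IC50 values (nM) calculated relative to untreated solvent control.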

human GST-CLK1 (129-end) = biological target: T2, human GST-CLK1 (129-end) (Homo sapiens, UniProt P49759); test: GST-CLK1 enzyme inhibition, ADP-Glo kinase assay; assay type: biochemical; details: ATP 10 uM
T2 construct: purified human GST-CLK1 (129-end, Signalchem) enzyme; GST; purchased Signalchem
Outline: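 ADP formation was read by ADP-Glo luminescence after 1 h at 25° C with 3 ng human GST-CLK1 (129-end), substrate and 10 uM ATP in Tris pH 7.4 buffer containing MgCl2, BSA and DTT. Inhibition relative to untreated solvent control gave IC50 (nM), run in triplicate.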

IL-6 = IL-6 secretion inhibition in LPS-treated THP-1 cells (ELISA); assay type: cell-based; details: Homo sapiens, compound 0.5 μM, LPS 500 ng/ml, 24 hours, read-out: THP1/IL6 (% inhib)
Method: (§1) In order to evaluate the cytokine secretion inhibitory efficacy of mononuclear cells, THP-1 cells (ATCC, #TIB-202) as a human-derived monocyte cell line were cultured in RPMI-1640 (Hyclone, SH30027.01) media in which 10% fetal bovine serum (Hyclone, SH30084.03), 1% penicillin streptomycin (Welgene, LS202-02) and 50 μM 2-Mercaptoethanol (Gibco, #21985023) were contained. In the test, 1.5-2×10^5 cells/250 μl per each well were dispensed in a 48-well plate (SPL, #30048) and incubated in an incubator at 37° C. and 5% CO2 for 16 hours, and then the compounds were diluted in DMSO so that the final concentration was 0.5 μM. It was treated with Lipopolysaccharides (LPS) (sigma, #L6529) […]. After treatment with the compound, the LPS was treated so that the final concentration was 500 ng/ml, and then the cell culture fluid was collected after culturing for 24 hours, and the degrees of the cytokines IL-6 (R&D system, #D6050) and TNF-α (R&D system, #DTA00D) contained in the culture fluid were collected using each ELISA kit. After performing the experiment according to the manufacturer's instructions, the absorbance at 450 nm was measured and analyzed using a microplate reader.

TNF-α = TNF-α secretion inhibition in LPS-treated THP-1 cells (ELISA); assay type: cell-based; details: Homo sapiens, compound 0.5 μM, LPS 500 ng/ml, 24 hours, read-out: THP-1/TNF-a (% inhib)
Method: as §1

LRRK2 = LRRK2 (Homo sapiens, UniProt Q5S007); test: LRRK2 enzyme inhibition, ADP-Glo kinase assay; assay type: biochemical; set-up: purchased Invitrogen PR8604B
Outline: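 ADP-Glo luminescence read after 2 h at 25° C, 10 μM ATP, 25 ng purified human LRRK2 and […] substrate in Tris-HCl pH7.4 buffer with MgCl2, BSA, DTT. Twelve final concentrations, 50 μM down to 0.000001024 μM; IC50 (nM) from inhibition relative to untreated solvent control.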

LRRK2 (G2019S) = LRRK2 (G2019S) (Homo sapiens, UniProt Q5S007, G2019S); test: LRRK2 G2019S enzyme inhibition, ADP-Glo kinase assay; assay type: biochemical; set-up: purchased SignalChem L10-12GG
Outline: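 Activity read as ADP-Glo luminescence, normalized to untreated solvent control, with IC50 (nM) fitted over 12 final compound levels (top 50 μM). Reaction: 2 h, 25° C, human LRRK2 G2019S 16 ng, ATP 25 μM, substrate 0.2 μg, in Tris-HCl pH 7.4 with MgCl2, BSA and DTT.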

[2] = biological target: T3, LRRK2, LRRK2 (G2019S), DYRK1, CLK1 and TTK kinases (Homo sapiens, UniProt Q13627); test: Enzyme IC50 by Kinase HotSpot service (Reaction Biology Corporation), values marked with *; assay type: biochemical; details: DYRK1, ATP 10 uM
T3 construct: other: DYRK1; Kinase HotSpot service (Reaction Biology), ATP 10 uM
Method: Meanwhile, the enzyme IC50 measurement for some compounds was performed using Kinase HotSpot service (Reaction Biology Corporation); during the test, the ATP concentration was 10 uM, where all were conducted under the same condition; and the concentration of the compound was measured by giving a 3-fold concentration gradient with the highest concentration of […], where the values measured using Kinase HotSpot service (Reaction Biology Corporation) were marked with “*”.
All experimental methods were performed as provided in Kinase HotSpot Customer Protocol (http://www.reactionbiology.com//Kinase_Assay_Protocol).
In the table below, the following designations were used for the evaluation of enzyme inhibitory ability.

MDA-MB-231 cell line = test: MDA-MB-231 cancer cell proliferation inhibition (Cell Titer-Glo); assay type: cell-based; details: Homo sapiens, MDA-MB-231 triple-negative breast cancer cell line, 72 hours
Outline: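 GI50 comes from CellTiter-Glo luminescence, read 10 min after reagent addition at RT, following 72 h compound treatment. Eleven concentrations were used (⅓ steps, highest 10 μM final) on 2000 cells/well. MDA-MB-231 and MDA-MB-468 were grown in DMEM, SHP-77 in RPMI.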

human DYRK1A and Tau = test: Tau phosphorylation inhibition, ClariCELL Kinase Cell-Based Assay (Carnabio)
Outline: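 HEK293 cells transiently expressing human DYRK1A and Tau were exposed to compound, then lysed. Released Tau was captured on plate and its phosphorylation quantified by ELISA with a phospho-Tau-specific antibody.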

Sequence of LRRK2 (Q5S007 970-2527 limits assumed): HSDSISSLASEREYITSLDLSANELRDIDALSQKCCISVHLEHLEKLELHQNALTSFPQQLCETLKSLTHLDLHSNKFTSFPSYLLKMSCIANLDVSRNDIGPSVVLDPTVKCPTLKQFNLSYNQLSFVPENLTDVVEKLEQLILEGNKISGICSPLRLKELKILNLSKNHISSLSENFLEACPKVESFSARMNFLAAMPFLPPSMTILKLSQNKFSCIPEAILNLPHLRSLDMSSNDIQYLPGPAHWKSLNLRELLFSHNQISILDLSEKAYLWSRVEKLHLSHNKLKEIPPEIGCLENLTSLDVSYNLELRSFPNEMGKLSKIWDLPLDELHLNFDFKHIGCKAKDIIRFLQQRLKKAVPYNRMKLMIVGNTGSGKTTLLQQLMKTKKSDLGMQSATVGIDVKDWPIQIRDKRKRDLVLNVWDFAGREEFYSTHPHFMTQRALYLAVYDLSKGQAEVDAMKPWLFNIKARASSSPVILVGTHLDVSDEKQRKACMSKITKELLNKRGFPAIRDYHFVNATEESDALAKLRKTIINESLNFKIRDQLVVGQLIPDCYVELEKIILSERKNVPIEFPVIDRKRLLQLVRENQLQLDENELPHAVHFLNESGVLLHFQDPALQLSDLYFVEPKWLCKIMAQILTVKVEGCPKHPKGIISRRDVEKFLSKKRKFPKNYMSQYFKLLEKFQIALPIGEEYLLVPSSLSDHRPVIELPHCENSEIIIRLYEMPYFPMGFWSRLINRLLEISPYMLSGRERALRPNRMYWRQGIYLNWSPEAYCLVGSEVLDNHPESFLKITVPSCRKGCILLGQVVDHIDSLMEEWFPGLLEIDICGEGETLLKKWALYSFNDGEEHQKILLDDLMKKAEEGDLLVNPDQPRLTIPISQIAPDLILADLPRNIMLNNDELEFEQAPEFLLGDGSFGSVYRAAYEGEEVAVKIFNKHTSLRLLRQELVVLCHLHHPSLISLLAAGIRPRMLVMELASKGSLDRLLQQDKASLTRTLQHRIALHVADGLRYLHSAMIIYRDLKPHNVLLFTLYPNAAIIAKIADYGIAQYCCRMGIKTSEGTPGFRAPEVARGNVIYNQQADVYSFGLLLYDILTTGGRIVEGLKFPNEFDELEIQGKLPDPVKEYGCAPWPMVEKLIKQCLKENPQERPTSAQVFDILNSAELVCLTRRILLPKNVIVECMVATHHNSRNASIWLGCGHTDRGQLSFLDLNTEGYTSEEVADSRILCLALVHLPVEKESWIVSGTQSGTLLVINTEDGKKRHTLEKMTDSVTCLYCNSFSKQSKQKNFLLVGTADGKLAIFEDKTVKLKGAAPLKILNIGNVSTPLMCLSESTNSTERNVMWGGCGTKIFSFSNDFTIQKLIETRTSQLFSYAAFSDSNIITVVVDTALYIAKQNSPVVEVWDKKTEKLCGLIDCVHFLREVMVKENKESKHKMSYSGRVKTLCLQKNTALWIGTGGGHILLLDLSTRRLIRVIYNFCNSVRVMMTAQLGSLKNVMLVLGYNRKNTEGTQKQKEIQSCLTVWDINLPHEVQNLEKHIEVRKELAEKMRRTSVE
Sequence of LRRK2 (G2019S) (Q5S007 970-2527 G2019S limits assumed): as the sequence (Q5S007 970-2527 limits assumed) above, with G1050S counted along it
T2 sequence (P49759 129-484 limits assumed): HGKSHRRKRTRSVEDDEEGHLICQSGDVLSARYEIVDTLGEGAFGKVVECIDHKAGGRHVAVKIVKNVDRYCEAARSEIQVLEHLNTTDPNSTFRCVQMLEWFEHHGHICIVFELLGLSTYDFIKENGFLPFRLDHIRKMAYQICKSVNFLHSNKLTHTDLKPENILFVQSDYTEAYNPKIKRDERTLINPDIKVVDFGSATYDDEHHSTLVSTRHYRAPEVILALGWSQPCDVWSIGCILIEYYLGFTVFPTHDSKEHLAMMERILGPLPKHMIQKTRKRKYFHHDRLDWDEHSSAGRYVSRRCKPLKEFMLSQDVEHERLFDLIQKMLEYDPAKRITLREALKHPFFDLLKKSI

| SMILES | IC50 [1] | IC50 (human GST-CLK1 (129-end)) | inhibition at 0.5 µM (IL-6) | inhibition at 0.5 µM (TNF-α) | IC50 (LRRK2) | IC50 (LRRK2 (G2019S)) | IC50 [2] | GI50 (MDA-MB-231 cell line) | inhibition at 0.25 µM (human DYRK1A and Tau) | inhibition at 0.5 µM (human DYRK1A and Tau) | inhibition at 1 µM (human DYRK1A and Tau) |
| --- | --- | --- | --- | --- | --- | --- | --- | --- | --- | --- | --- |
| CNc1cc(Nc2ccc(C(=O)N3CCOCC3)c3c2OCO3)nc2[nH]cc(C(F)(F)F)c12 [Example 38, (7-((4-(methylamino)-3-(trifluoromethyl)-1H-pyrrolo[2,3-b]pyridin-6-yl)amino)benzo [d] [1,3]dioxol-4-yl)(morpholino) methanone] | < 100 nM | < 100 nM | 36.1% | 32.8% | 101 to 300 nM | < 100 nM | – | – | – | – | – |
| COCCNc1cc(Nc2ccc(C(=O)N3CCOCC3)c3c2OCC3)nc2[nH]cc(C(F)(F)F)c12 [Example 54, (7-((4-((2-methoxyethyl)amino)-3-(trifluoromethyl)-1H-pyrrolo[2,3-b]pyridin-6-yl)amino)-2,3-dihydrobenzofuran-4-yl)(morpholino) methanone] | < 100 nM | < 100 nM | 46.9% | – | < 100 nM | < 100 nM | – | – | – | – | – |
| COc1cc(P2(=O)CCN(C3CCOCC3)CC2)ccc1Nc1cc(C2CC2)c2c(C(F)(F)F)c[nH]c2n1 [Example 102, 4-(4-((4-cyclopropyl-3-(trifluoromethyl)-1H-pyrrolo[2,3-b]pyridin-6-yl)amino)-3-methoxyphenyl)-1-(tetrahydro-2H-pyran-4-yl)-1,4-azaphosphinane 4-oxide] | – | 301 to 1000 nM | – | – | – | – | < 100 nM | – | – | – | – |
| CS(=O)(=O)CCNc1cc(Nc2ccc(C(=O)N3CCOCC3)c3c2OCCO3)nc2[nH]cc(C(F)(F)F)c12 [Example 157, (8-((4-((2-(methylsulfonyl)ethyl)amino)-3-(trifluoromethyl)-1H-pyrrolo[2,3-b]pyridin-6-yl)amino)-2,3-dihydrobenzo [b] [1,4]dioxin-5-yl)(morpholino) methanone] | < 100 nM | < 100 nM | 29.1% | 31% | < 100 nM | < 100 nM | – | – | – | – | – |
| CNc1cc(Nc2ccc(P3(=O)CCN(C4COC4)CC3)cc2OC)nc2[nH]cc(C(F)(F)F)c12 [Example 212, 4-(3-methoxy-4-((4-(methylamino)-3-(trifluoromethyl)-1H-pyrrolo[2,3-b]pyridin-6-yl)amino)phenyl)-1-(oxetan-3-yl)-1,4-azaphosphinane 4-oxide] | < 100 nM | < 100 nM | 29.1% | 2.7% | < 100 nM | – | – | 301 to 1000 nM | – | – | – |
| CCNc1cc(Nc2ccc(C(=O)N3CC[C@@H](N4CCOCC4)C3)c3c2OCC3)nc2[nH]cc(C(F)(F)F)c12 [Example 213, (R)-(7-((4-(ethylamino)-3-(trifluoromethyl)-1H-pyrrolo[2,3-b]pyridin-6-yl)amino)-2,3-dihydrobenzofuran-4-yl)(3-morpholinopyrrolidin-1-yl)methanone] | 101 to 300 nM | < 100 nM | 3.9% | 2.6% | 101 to 300 nM | 101 to 300 nM | – | – | – | – | – |
| COc1cc(P(C)(C)=O)ccc1Nc1cc(C2CC2)c2c(C(F)(F)F)c[nH]c2n1 [Example 219, (4-((4-cyclopropyl-3-(trifluoromethyl)-1H-pyrrolo[2,3-b]pyridin-6-yl)amino)-3-methoxyphenyl) dimethylphosphine oxide] | – | 301 to 1000 nM | – | – | – | – | < 100 nM | – | – | – | – |
| CNc1cc(Nc2ccc(C(=O)N3CCC(N4CCOCC4)CC3)c3c2OCO3)nc2[nH]cc(C(F)(F)F)c12 [Example 235, (7-((4-(methylamino)-3-(trifluoromethyl)-1H-pyrrolo[2,3-b]pyridin-6-yl)amino)benzo[d][1,3]dioxol-4-yl)(4-morpholinopiperidin-1-yl)methanone] | < 100 nM | < 100 nM | 22.9% | 36.3% | < 100 nM | – | – | – | – | – | – |
| CCNc1cc(Nc2ccc(C(=O)N3CCC(N4CCN(C)CC4)CC3)c3c2OCC3)nc2[nH]cc(C(F)(F)F)c12 [Example 247, (7-((4-(ethylamino)-3-(trifluoromethyl)-1H-pyrrolo[2,3-b]pyridin-6-yl)amino)-2,3-dihydrobenzofuran-4-yl)(4-(4-methylpiperazin-1-yl)piperidin-1-yl)methanone] | < 100 nM | < 100 nM | 31.9% | 15.5% | – | < 100 nM | – | – | 52.3% | 76.8% | 104% |
| CCNc1cc(Nc2ccc(C(=O)N3CCC(N(C)C)CC3)c3c2OCC3)nc2[nH]cc(C(F)(F)F)c12 [Example 249, (4-(dimethylamino)piperidin-1-yl)(7-((4-(ethylamino)-3-(trifluoromethyl)-1H-pyrrolo[2,3-b]pyridin-6-yl)amino)-2,3-dihydrobenzofuran-4-yl)methanone] | < 100 nM | < 100 nM | 60.3% | 10.1% | – | < 100 nM | – | – | 62.4% | 76.9% | 82.9% |
| CCNc1cc(Nc2ccc(C(=O)N3CCN(CCO)CC3)c3c2OCC3)nc2[nH]cc(C(F)(F)F)c12 [Example 253, (7-((4-(ethylamino)-3-(trifluoromethyl)-1H-pyrrolo[2,3-b]pyridin-6-yl)amino)-2,3-dihydrobenzofuran-4-yl)(4-(2-hydroxyethyl)piperazin-1-yl)methanone] | < 100 nM | < 100 nM | 49.2% | 9.83% | – | < 100 nM | – | – | – | – | – |
| CCNc1cc(Nc2ccc(C(=O)N3CCN(CC4CC4)CC3)c3c2OCC3)nc2[nH]cc(C(F)(F)F)c12 [Example 257, (4-(cyclopropylmethyl)piperazin-1-yl)(7-((4-(ethylamino)-3-(trifluoromethyl)-1H-pyrrolo[2,3-b]pyridin-6-yl)amino)-2,3-dihydrobenzofuran-4-yl)methanone] | < 100 nM | < 100 nM | 44% | 7.88% | – | < 100 nM | – | – | – | – | – |
| CCNc1cc(Nc2ccc(C(=O)N3CCC(N4CCN(C5CC5)CC4)CC3)c3c2OCC3)nc2[nH]cc(C(F)(F)F)c12 [Example 264, (4-(4-cyclopropylpiperazin-1-yl)piperidin-1-yl)(7-((4-(ethylamino)-3-(trifluoromethyl)-1H-pyrrolo[2,3-b]pyridin-6-yl)amino)-2,3-dihydrobenzofuran-4-yl)methanone] | < 100 nM | < 100 nM | 45.5% | 11.2% | – | < 100 nM | – | – | – | – | – |
